# Data published in patent publication US9951055B2, “Thiazole-based inhibitors of scavenger receptor BI” (THE BROAD INSTITUTE, INC., priority 2012, dated 2018).
# Legend:
# [1] = Stability in human plasma; assay type: in vitro ADME; conditions: after a 5-hour incubation period
# Protocol: The stability of the probe in PBS (1% DMSO) was measured over 48 hours. We noticed that the concentration of the probe fluctuated through the course of the assay (data not shown). We believe that this fluctuation is due to the low solubility of the probe. Thus, we decided to determine the amount of undissolved probe present in the well after it was treated with PBS for a given length of time, relative to the amount of undissolved probe at the start of the assay. The wells were centrifuged and the supernatant was removed after various time points, then acetonitrile was added to dissolve the remaining solid in the wells, and the amount of probe was quantified. […] The stability of the probe was confirmed by measuring stability in human plasma, with >99% remaining after a 5-hour incubation period. […] FIG. 5 provides a tablular summary of Known Probe (ML278) Properties Computed from Structure.
# SR-BI = biological target: T1, SR-BI (Mus musculus, UniProt Q61009); test: HDL binding assay (Alexa 488 HDL); assay type: cell-based; set-up: expressed in transfected cells; conditions: Alexa-488 labeled HDL particles
# T1 sequence (Q61009 1-509): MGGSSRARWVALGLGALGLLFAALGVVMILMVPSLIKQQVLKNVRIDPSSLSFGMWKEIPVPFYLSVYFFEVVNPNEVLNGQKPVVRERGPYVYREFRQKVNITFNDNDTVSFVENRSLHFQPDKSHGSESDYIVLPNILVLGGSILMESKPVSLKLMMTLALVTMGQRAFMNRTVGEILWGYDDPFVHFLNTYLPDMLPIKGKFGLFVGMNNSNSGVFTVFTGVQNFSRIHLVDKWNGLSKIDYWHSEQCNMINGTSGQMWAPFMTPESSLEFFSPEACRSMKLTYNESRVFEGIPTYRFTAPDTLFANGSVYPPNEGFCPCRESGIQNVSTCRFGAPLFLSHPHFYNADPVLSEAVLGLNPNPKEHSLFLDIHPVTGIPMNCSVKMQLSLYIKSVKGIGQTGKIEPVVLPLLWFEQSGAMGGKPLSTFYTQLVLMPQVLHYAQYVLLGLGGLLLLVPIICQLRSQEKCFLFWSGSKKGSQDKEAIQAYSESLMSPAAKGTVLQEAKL
# Protocol: HDL binding was assessed using Alexa Fluor 488-labeled HDL particles. For this assay, the Alexa 488 dye was covalently bound to apolipoprotein components of the HDL particle via primary amines; thus, no transfer of the fluorophore to cell membranes occurs. In this manner, direct binding of the HDL particles to SR-BI can be measured. As a positive control, BLT-1, which is known to increase binding of HDL to SR-BI, was used at 1 μM (12). It is possible that a compound can reduce binding of HDL to the receptor, and this would lead to a decrease in signal. This assay is used to characterize the mechanism of action of a particular compound; therefore, any outcome in the assay is acceptable. Data were normalized against DMSO and the positive control (1 μM BLT-1) in Genedata Assay Analyzer.
# [2] = Cell cytotoxicity assay (CellTiter-Glo); assay type: cell-based, Chinese hamster; conditions: Chinese hamster, ldlA[mSR-BI] cells; after 24 hours of treatment
# Protocol: It is possible that a compound will cause cells to decrease HDL-mediated DiI uptake due to nonspecific consequences of cellular toxicity, representing a second class of false positive hits. The cells were treated with compounds for 3 hours or 24 hours, and then cell viability was measured using the CellTiter-Glo Assay (Promega), a luciferase-based reagent that measures cellular ATP levels. The compounds were tested at different concentrations to determine IC50 values. […] Compounds that were active in the primary assay but toxic below 30 μM at 24 hours (but nontoxic at 3 hours) were still considered. […] Data were normalized against DMSO and the positive control (1 μM BLT-1) in Genedata Assay Analyzer.
# All available dry powder samples of the remaining, non-quenching compounds were procured from commercial sources and purities were determined. The compounds obtained were then retested in the primary assay and in the cytotoxicity assays. We wanted to rule out any compounds that were cytotoxic, especially in the 3-hour time span of the primary DiI-HDL uptake assay. Therefore, compounds were tested in ldlA[mSR-BI]cells for cytotoxicity at 3 hours and 24 hours using the CellTiter-Glo assay (Promega) that measures cellular ATP as a marker of cell viability. […] Compounds were screened for inhibition of endocytosis using labeled transferrin, which is known to bind the transferrin receptor, enter cells by clathrin-mediated endocytosis, and move to endosomes before being recycled to the cell surface. The BLT compounds have also been tested for potential interference with endocytosis and show no such activity.
structure (smiles),measurement,setting,value
"COCC(=O)N1CCc2cc(-c3csc(NC(=O)c4cc(OC)cc(OC)c4)n3)ccc21 [Compound 137, 3,5-Dimethoxy-N-(4-(1-(2-methoxyacetyl)indolin-5-yl)thiazol-2-yl)benzamide]","stability in human plasma, remaining",[1],> 99%
same,binding of HDL to SR-BI,SR-BI,increases binding of HDL to the receptor
same,EC50 at 24 h,[2],> 35 µM
